Test results taken from patent US20260000079A1, “COMPOSITIONS AND METHODS FOR MODULATING IMMUNITY IN PLANTS” (BOYCE THOMPSON INSTITUTE FOR PLANT RESEARCH, INC., priority 2019, published 2026).

Key:
[1] = system: Arabidopsis wildtype and ibr10, ech2, ech2ibr10, or acx1acx5 mutants; format: in vivo, Arabidopsis thaliana; details: for ascaroside levels in ascr #18-treated acx1acx5 mutant compared with wildtype: roots treated with 1 μM ascr #18
Protocol: FIG. 3A provides a comparison of peroxisomal β-oxidation (pβo) pathways and associated enzymes involved in the conversion of indole-3-butyric acid (IBA)-to-indole acetic acid (IAA) in Arabidopsis and ascaroside biosynthesis in C. elegans. FIG. 3B provides LC-MS analysis of Arabidopsis seedlings treated with 1 μM ascr #18 for 24 hours before sample extraction, comparing ascr #9 production in wildtype and ibr10, ech2, ech2ibr10, or acx1acx5 mutants. FIG. 3C provides a comparison of ascaroside abundances in Arabidopsis wildtype and acx1acx5 roots treated with 1 μM ascr #18. Data are averages±SEM (n=5); n.d.=not detected. FIG. 3D provides RNAseq analysis of ten day-old Arabidopsis wildtype and acx1acx5 mutant roots, plotted as transcript abundance. Data are averages±s.d (n=6).
Arabidopsis thaliana mutant genotypes in the Col-0 background, ibr10-1, ech2-1, ibr10-1ech2-1, and acx1-2acx5-1, were obtained from Rice University (Houston, TX) (Strader, et al. (2011) Plant Cell 23:984-999; Adham, et al. (2005) Plant J. 41:859-874).
To test whether ascr #18 is metabolized via pβo in plants, Arabidopsis mutants impaired in key enzymes of this pathway were analyzed (FIG. 3B). […] In contrast, two other putative po genes, ibr10 and ech2, a putative enoyl-CoA hydratases (Strader, et al. (2011) Plant Cell 23:984-999; Adham, et al. (2005) Plant J. 41:859-874; Zolman, et al. (2008) Genetics 180(1): 237-51), are not required for ascr #18 metabolism in Arabidopsis. ACXs participate in the […] step of pβo by introducing α,β-unsaturation in the side-chain (Von Reuss, et al. (2012) J. Am. Chem. Soc. 134:1817-1824; Strader, et al. (2011) Plant Cell 23:984-999). […] These observations indicate that ascr #18 metabolism in plants into shorter-chained ascarosides proceeds via pβo, and that ACX1 and/or ACX5 are strictly required for chain shortening of ascr #10, whereas the first chain-shortening step from ascr #18 to ascr #10 may involve additional acyl-CoA oxidases.

[2] = system: Arabidopsis, tomato, and wheat roots; assay: LC-MS comparative metabolomics of ascr #18-treated plant roots; format: in vivo
Protocol: Plant tissues were immediately frozen in liquid nitrogen and ground to a fine powder and extracted with 350 μL mixture of water/methanol/chloroform (1:2:1) for 12 hours at 4° C., with shaking at 220 rpm. The extracts were dried in vacuo, resuspended in 100-200 μL of 80% methanol and analyzed by LC/MS. For root tissues, seedlings were extensively washed three times with the excess amount of distilled water and dried on filter paper. The root tissues from 40 seedlings were pooled in one tube and then similarly extracted. Mixed stage C. elegans culture extract was prepared as described (Panda, et al. (2017) Angew Chem. Int. Ed. Engl. 56(17): 4729-4733).
High resolution LC-MS analysis was performed on a Dionex™ 3000 UPLC system coupled with a Thermo Q Exactive™ high-resolution mass spectrometer as described (Artyukhin, et al. (2018) J. Am. Chem. Soc. 140 (8): 2841-2852; Panda, et al. (2017) Angew Chem. Int. Ed. Engl. 56 (17): 4729-4733). Metabolite extracts were separated using water-acetonitrile gradient using Agilent ZORBOX Eclispse XDB-C18 rapid resolution column (2.1 mm×150 mm, particle size 1.8-micron) maintained at 40° C. Solvent A: 0.1% formic acid in water; Solvent B: 0.1% formic acid in acetonitrile. […] Ascarosides were detected in negative ionization mode as [M-H]— and MS/MS spectra and retention times confirmed by comparison with known standards. […]

Structure (SMILES) | metabolism of ascr #18 into shorter-chained ascarosides ([1]; acx1acx5 mutant, 1 μM ascr #18, 24 hours) | requirement of ibr10 and ech2 for ascr #18 metabolism ([1]; ibr10, ech2 mutants, 1 μM ascr #18, 24 hours) | ascaroside levels in ascr #18-treated acx1acx5 mutant compared with wildtype [1] | uptake and metabolism of ascr #18 in roots ([2]; roots soaked 24 hours in ascr #18 solution, monocots and dicots) | abundance among ascr #18-derived metabolites in roots (LC-MS peak area) ([2]; all three plant species, ascr #18 root treatment 24 hours)
CC1O[C@@H](O[C@@H](C)CCCCCCCCC(=O)O)C(O)C[C@H]1O (stereo in doubt) [ascr #18, (10R)-(3′R,5′R-dihydroxy-6′S-methyl-(2H)-tetrahydropyran-2-yloxy)-undecanoic acid] | dramatically reduced | not required | elevated levels | taken up and subsequently metabolized into ascarosides with shorter fatty-acid side chains | –
C[C@H](CCC(=O)O)O[C@@H]1O[C@@H](C)[C@H](O)C[C@H]1O [ascr #9] | – | – | not detected | – | most abundant differential metabolite
